# Laboratory results as given in US20240245673A1, “Papain-like protease (PLpro) inhibitors” (Pfizer Inc., priority 2022, published 2024).
# Target: SARS-CoV-2 Papain like protease (PLpro) (Severe acute respiratory syndrome coronavirus 2 (2019-nCoV) (SARS-CoV-2), UniProt P0DTD1)
# Assay: Papain Like Protease (PLpro) biochemical assay with profluorogenic substrate Z-RLRGG-AMC
# Details: IC50 (μM), SARS-CoV-2 PLpro 6.25 nM, 25 μM Z-RLRGG-AMC substrate, 60 minute reaction
row,SMILES,IC50
1,"CCn1cc(-c2cc(C(C)NC(=O)c3ccccc3C)c3ccccc3n2)cn1 (centres unmarked) [Example 110, N-{1-[2-(1-ethyl-1H-pyrazol-4-yl)quinolin-4-yl]ethyl}-2-methylbenzamide]",0.224 µM
2,"Cc1ccc(N2CC3CC(C2)N3C)cc1C(=O)N[C@H](C)c1cc(-c2cnn(C)c2)nc2ccccc12 [Example 252, 2-methyl-N—((R)-1-(2-(1-methyl-1H-pyrazol-4-yl)quinolin-4-yl)ethyl)-5-(6-methyl-3,6-diazabicyclo[3.1.1]heptan-3-yl)benzamide]",0.005 µM

# Same assay, conditions: SARS-CoV-2 PLpro 6.25 nM, 25 μM Z-RLRGG-AMC substrate, 60 minute reaction; read-out: IC50
row,SMILES,IC50
1,Cc1nc(CNC(=O)c2ccc(C(=O)N[C@H](C)c3cc(-c4cnn(C)c4)nc4ccccc34)c(C)c2)cs1 [Example 204],0.073 µM
2,"CNC(=O)Cc1ccc(C(=O)N[C@H](C)c2cc(-c3cnn(C)c3)nc3ccccc23)c(C)c1 [Example 259, (R)-2-methyl-N-(1-(2-(1-methyl-1H-pyrazol-4-yl)quinolin-4-yl)ethyl)-4-(2-(methylamino)-2-oxoethyl)benzamide]",0.147 µM
3,"CCOC(=O)[C@H]1O[C@@H]1C(=O)NNC(=O)CCc1ccccc1C(=O)N[C@H](C)c1cc(-c2cnn(C)c2)nc2ccccc12 [Example 227, ethyl (2S,3S)-3-(2-(3-(2-(((R)-1-(2-(1-methyl-1H-pyrazol-4-yl)quinolin-4-yl)ethyl)carbamoyl)phenyl)propanoyl)hydrazine-1-carbonyl)oxirane-2-carboxylate]",0.002 µM
4,"Cc1cc(C(C)NC(=O)c2ncc[nH]2)ccc1C(=O)N[C@H](C)c1cc(-c2cnn(C)c2)nc2ccccc12 (stereo partly drawn) [Example 270, N-(1-(3-methyl-4-(((R)-1-(2-(1-methyl-1H-pyrazol-4-yl)quinolin-4-yl)ethyl)carbamoyl)phenyl)ethyl)-1H-imidazole-2-carboxamide]",0.037 µM
5,"Cc1ccc(N2CCN(C)CC2=O)cc1C(=O)N[C@H](C)c1cc(-c2cnn(C)c2)nc2ccccc12 [Example 249, (R)-2-methyl-N-(1-(2-(1-methyl-1H-pyrazol-4-yl)quinolin-4-yl)ethyl)-5-(4-methyl-2-oxopiperazin-1-yl)benzamide]",0.733 µM
6,"Cc1ccccc1C(=O)NC(C)c1cc(-c2cnn(C)n2)nc2ccccc12 (centres unmarked) [Example 135, 2-methyl-N-{1-[2-(2-methyl-2H-1,2,3-triazol-4-yl)quinolin-4-yl]ethyl}benzamide]",0.855 µM
7,"Cc1cc(C(C)(C)NCc2cscn2)ccc1C(=O)N[C@H](C)c1cc(-c2cnn(C)c2)nc2ccccc12 [Example 241, (R)-2-methyl-N-(1-(2-(1-methyl-1H-pyrazol-4-yl)quinolin-4-yl)ethyl)-4-(2-((thiazol-4-ylmethyl)amino)propan-2-yl)benzamide]",0.007 µM
8,Cc1cc(C(=O)NCc2ncsc2C)ccc1C(=O)N[C@H](C)c1cc(-c2cnn(C)c2)nc2ccccc12 [Example 203],0.002 µM
9,"Cc1ccccc1C(=O)NC(C)c1cc(-c2cnn(CC3(C#N)CC3)c2)nc2ccccc12 (centres unmarked) [Example 123, N-[1-(2-{1-[(1-cyanocyclopropyl)methyl]-1H-pyrazol-4-yl}quinolin-4-yl)ethyl]-2-methylbenzamide]",0.329 µM
10,"COC(=O)c1ccc(-c2cc(C(C)NC(=O)c3ccccc3C)c3ccccc3n2)o1 (centres unmarked) [Example 133, methyl 5-{4-[1-(2-methylbenzamido)ethyl]quinolin-2-yl}furan-2-carboxylate]",0.392 µM
11,"Cc1ccc(CN)cc1C(=O)N[C@H](C)c1cc(-c2cn[nH]c2)nc2ccccc12 [Example 18, (R)-N-(1-(2-(1H-pyrazol-4-yl)quinolin-4-yl)ethyl)-5-(aminomethyl)-2-methylbenzamide]",0.027 µM
12,"Cc1cc(CNC(=O)c2cscn2)ccc1C(=O)NC(C)c1cc(-c2cnn(C)c2)cc2ccccc12 (centres unmarked) [Example 54, N-(3-methyl-4-((1-(3-(1-methyl-1H-pyrazol-4-yl)naphthalen-1-yl)ethyl)carbamoyl)benzyl)thiazole-4-carboxamide]",0.028 µM
13,"Cc1ccc(CN)cc1C(=O)N[C@H](C)c1cc(-c2cc(C(=O)N(C)C)n(C)c2)nc2ccccc12 [Example 258, (R)-4-(4-(1-(5-(aminomethyl)-2-methylbenzamido)ethyl)quinolin-2-yl)-N,N,1-trimethyl-1H-pyrrole-2-carboxamide]",0.044 µM
14,"CCCc1cc(C(C)NC(=O)c2ccccc2C)c2ccccc2n1 (stereo in doubt) [Example 153, 2-methyl-N-[(1R)-1-(2-propylquinolin-4-yl)ethyl]benzamide]",0.311 µM
15,"Cc1ccccc1C(=O)N[C@H](C)c1cc(OCC2CCOC2)nc2ccccc12 (stereo partly drawn) [Example 43, 2-methyl-N-((1R)-1-(2-((tetrahydrofuran-3-yl)methoxy)quinolin-4-yl)ethyl)benzamide]",3.08 µM
16,"Cc1ccc(N2CCN(C)CC2)cc1C(=O)NC(C)c1cc(-c2cc(C(=O)N(C)C)c[nH]2)cc2ccccc12 (centres unmarked) [Example 229, N,N-dimethyl-5-(4-(1-(2-methyl-5-(4-methylpiperazin-1-yl)benzamido)ethyl)naphthalen-2-yl)-1H-pyrrole-3-carboxamide]",0.006 µM
17,"Cc1ccc(NC(=O)[C@H]2CCCCN2)cc1C(=O)N[C@H](C)c1cc(-n2ccnn2)nc2ccccc12 (single isomer, unassigned) [Example 29, (R)—N-(3-(((R*)-1-(2-(1H-1,2,3-triazol-1-yl)quinolin-4-yl)ethyl)carbamoyl)-4-methylphenyl)piperidine-2-carboxamide]",0.1 µM

row,SMILES,IC50
1,"COC[C@H](OCc1cscn1)c1ccc(C(=O)NC2(c3cc(-c4cnn(C)c4)cc4ncccc34)CC2)c(C)c1 (single isomer, unassigned) [Example 335]",< 0.001 µM
2,"CO/C=C/C(=O)NNC(=O)CCc1ccccc1C(=O)N[C@H](C)c1cc(-c2cnn(C)c2)nc2ccccc12 [Example 222, (R,E)-2-(3-(2-(3-methoxyacryloyl)hydrazineyl)-3-oxopropyl)-N-(1-(2-(1-methyl-1H-pyrazol-4-yl)quinolin-4-yl)ethyl)benzamide]",1.98 µM
3,"COCC(OCc1cscn1)c1ccc(C(=O)N[C@H](C)c2cc(-c3cnn(C)c3)nc3ccccc23)c(C)c1 (mixture of isomers) [Example 331, 4-(2-methoxy-1-(thiazol-4-ylmethoxy)ethyl)-2-methyl-N-((R)-1-(2-(1-methyl-1H-pyrazol-4-yl)quinolin-4-yl)ethyl)benzamide]",< 0.001 µM
4,"COCCn1nc(C)c(-c2cc(C(C)NC(=O)c3ccccc3C)c3ccccc3n2)c1C (centres unmarked) [Example 121, N-(1-{2-[1-(2-methoxyethyl)-3,5-dimethyl-1H-pyrazol-4-yl]quinolin-4-yl}ethyl)-2-methylbenzamide]",1.42 µM
5,"Cc1ccccc1C(=O)NC(C)c1cc(-c2ccc(NS(C)(=O)=O)cc2)nc2ccccc12 (centres unmarked) [Example 122, N-[1-(2-{4-[(methanesulfonyl)amino]phenyl}quinolin-4-yl)ethyl]-2-methylbenzamide]",0.201 µM
6,"Cc1ccccc1C(=O)N[C@H](C)c1cc(N(C)C)nc2ccccc12 [Example 42, (R)-N-(1-(2-(dimethylamino)quinolin-4-yl)ethyl)-2-methylbenzamide]",2.17 µM
7,"CNCc1ccc(C)c(C(=O)N[C@H](C)c2cc(-c3cn[nH]c3)nc3ccccc23)c1 [Example 17, (R)—N-(1-(2-(1H-pyrazol-4-yl)quinolin-4-yl)ethyl)-2-methyl-5-((methylamino)methyl)benzamide]",0.022 µM
8,"Cc1cc(CC(=O)O)ccc1C(=O)N[C@H](C)c1cc(-c2cnn(C)c2)nc2ccccc12 [Example 200, (R)-2-(3-methyl-4-((1-(2-(1-methyl-1H-pyrazol-4-yl)quinolin-4-yl)ethyl)carbamoyl)phenyl)acetic acid]",0.792 µM
9,"Cc1ccc(N2CCNCC2)cc1C(=O)N[C@H](C)c1cc(-c2cnn(C)c2)nc2ccccc12 [Example 55, (R)-2-methyl-N-(1-(2-(1-methyl-1H-pyrazol-4-yl)quinolin-4-yl)ethyl)-5-(piperazin-1-yl)benzamide]",0.018 µM
10,"COC(=O)/C=C/C(=O)NNC(=O)CCc1ccccc1C(=O)N[C@H](C)c1cc(-c2cnn(C)c2)nc2ccccc12 [Example 63, methyl(R,E)-4-(2-(3-(2-((1-(2-(1-methyl-1H-pyrazol-4-yl)quinolin-4-yl)ethyl)carbamoyl)phenyl)propanoyl)hydrazineyl)-4-oxobut-2-enoate]",0.003 µM
11,"Cc1ccccc1C(=O)N[C@H](C)c1cc(-c2cnn(C)c2)nc2ccccc12 [Example 49, (R)-2-methyl-N-(1-(2-(1-methyl-1H-pyrazol-4-yl)quinolin-4-yl)ethyl)benzamide]",0.151 µM
12,"Cc1ccccc1C(=O)NC(C)c1cc(C2CCOCC2)nc2ccccc12 (stereo in doubt) [Example 155, 2-methyl-N-{(1R)-1-[2-(oxan-4-yl)quinolin-4-yl]ethyl}benzamide]",0.581 µM
13,"CNC(=O)c1cc(-c2cc(C3(NC(=O)c4ccc(COCc5cscn5)cc4C)CC3)c3ccccc3n2)[nH]n1 [Example 347, N-methyl-5-(4-(1-(2-methyl-4-((thiazol-4-ylmethoxy)methyl)benzamido)cyclopropyl)quinolin-2-yl)-1H-pyrazole-3-carboxamide]",< 0.001 µM
14,"Cc1cc(CNC(=O)c2ncc[nH]2)ccc1C(=O)NC(C)c1cc(-c2cnn(C)c2)cc2ccccc12 (centres unmarked) [Example 62, N-(3-methyl-4-((1-(3-(1-methyl-1H-pyrazol-4-yl)naphthalen-1-yl)ethyl)carbamoyl)benzyl)-1H-imidazole-2-carboxamide]",0.039 µM
15,"Cc1cc(CC(=O)Nc2ncc[nH]2)ccc1C(=O)N[C@H](C)c1cc(-c2cnn(C)c2)nc2ccccc12 [Example 239, (R)-4-(2-((1H-imidazol-2-yl)amino)-2-oxoethyl)-2-methyl-N-(1-(2-(1-methyl-1H-pyrazol-4-yl)quinolin-4-yl)ethyl)benzamide]",0.007 µM
16,"COC[C@@H](OCc1cocn1)c1ccc(C(=O)NC2(c3cc(-c4cc(C(=O)N(C)C)n[nH]4)cc4ncccc34)CC2)c(C)c1 (single isomer, unassigned) [Example 360]",0.001 µM
